Assay results: article PMC3742363 (Chemistry & biology, 2013)
Substitutions are numbered along the chain they refer to.

Columns and labels:
Erk2 Q103T = Erk2 Q103T (Rattus norvegicus, UniProt P63086, Q103T); settings: read-out: Km(ATP); activated Erk2 Q103T
Erk2 Q103T/C164L = Erk2 Q103T/C164L (Rattus norvegicus, UniProt P63086, C164L/Q103T); settings: read-out: Km(ATP); activated Erk2 Q103T/C164L
Jnk3 wt = Jnk3 wt (Homo sapiens, UniProt P53779); experiment: Kinetics: activity assay at varied ATP concentrations; assay type: biochemical; settings: read-out: Km(ATP); activated Jnk3 wt
Jnk3 wt, sequence (P53779 whole entry): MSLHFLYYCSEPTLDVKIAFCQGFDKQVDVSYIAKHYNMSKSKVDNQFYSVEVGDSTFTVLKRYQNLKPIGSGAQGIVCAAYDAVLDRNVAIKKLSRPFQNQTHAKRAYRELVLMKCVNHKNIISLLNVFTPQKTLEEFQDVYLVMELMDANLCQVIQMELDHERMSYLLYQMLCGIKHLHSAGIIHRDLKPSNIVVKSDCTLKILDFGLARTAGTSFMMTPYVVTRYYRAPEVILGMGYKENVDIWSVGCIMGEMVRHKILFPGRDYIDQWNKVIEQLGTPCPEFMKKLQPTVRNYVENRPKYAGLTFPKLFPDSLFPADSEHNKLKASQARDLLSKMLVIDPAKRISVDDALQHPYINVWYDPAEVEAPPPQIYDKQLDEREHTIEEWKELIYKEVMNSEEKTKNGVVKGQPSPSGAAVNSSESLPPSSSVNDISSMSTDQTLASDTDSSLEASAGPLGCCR

p38δ wt = biological target: T1, p38δ wt (Mus musculus, UniProt Q9Z1B7); experiment: as above; assay type: biochemical; settings: read-out: Km(ATP); activated p38δ wt
T1 sequence (Q9Z1B7 1-366): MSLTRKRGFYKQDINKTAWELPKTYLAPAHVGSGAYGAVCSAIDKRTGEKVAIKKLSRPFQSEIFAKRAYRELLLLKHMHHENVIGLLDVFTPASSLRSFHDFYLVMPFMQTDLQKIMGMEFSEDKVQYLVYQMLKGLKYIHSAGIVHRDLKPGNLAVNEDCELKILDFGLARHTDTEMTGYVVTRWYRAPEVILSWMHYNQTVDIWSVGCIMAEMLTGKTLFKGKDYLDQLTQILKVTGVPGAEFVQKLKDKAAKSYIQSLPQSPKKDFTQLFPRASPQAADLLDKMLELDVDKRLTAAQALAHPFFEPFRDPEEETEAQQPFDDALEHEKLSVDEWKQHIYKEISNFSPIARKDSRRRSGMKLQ

p38α wt [1] = biological target: T2, p38α wt (Mus musculus, UniProt P47811); experiment: as above; assay type: biochemical; settings: read-out: Km(ATP); activated p38α wt
T2 sequence (P47811 whole entry): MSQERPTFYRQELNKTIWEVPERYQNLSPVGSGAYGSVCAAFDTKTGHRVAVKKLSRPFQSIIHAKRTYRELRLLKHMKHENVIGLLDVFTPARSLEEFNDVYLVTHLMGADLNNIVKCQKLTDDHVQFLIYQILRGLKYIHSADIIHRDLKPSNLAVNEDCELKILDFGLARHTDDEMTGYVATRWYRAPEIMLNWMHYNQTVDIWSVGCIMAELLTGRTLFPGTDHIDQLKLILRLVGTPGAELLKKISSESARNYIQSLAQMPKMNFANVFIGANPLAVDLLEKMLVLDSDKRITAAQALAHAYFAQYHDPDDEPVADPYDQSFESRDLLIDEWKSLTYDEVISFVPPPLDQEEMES

Jnk3 M146I = Jnk3 M146I (Homo sapiens, UniProt P53779, M146I); experiment: as above; assay type: biochemical; settings: read-out: Km(ATP); activated Jnk3 M146I
Jnk3 M146I, sequence (P53779 whole entry M146I): as the sequence (P53779 whole entry) above, with M146I counted along it

Erk2 wt = Erk2 wt (Rattus norvegicus, UniProt P63086); settings: read-out: Km(ATP); activated Erk2 wt
p38α T106Q [2] = biological target: T3, p38α T106Q (Mus musculus, UniProt P47811, T106Q); experiment: Kinetics: activity assay at varied ATP concentrations; assay type: biochemical; settings: read-out: Km(ATP); activated p38α T106Q; rate of reaction maintained linearity as high as 1000 μM ATP
T3 sequence (P47811 whole entry T106Q): as the sequence (P47811 whole entry) above, with T106Q counted along it

p38δ M107T = biological target: T4, p38δ M107T (Mus musculus, UniProt Q9Z1B7, M107T); experiment: as above; assay type: biochemical; settings: read-out: Km(ATP); activated p38δ M107T
T4 sequence (Q9Z1B7 1-366 M107T): T1 sequence (Q9Z1B7 1-366) with M107T

Erk2 Q103A/C164L = Erk2 Q103A/C164L (Rattus norvegicus, UniProt P63086, C164L/Q103A); settings: read-out: Km(ATP); activated Erk2 Q103A/C164L
p38α wt [3] = biological target: T2, p38α wt; experiment: Kinase activity assay; assay type: biochemical
p38α T106Q [4] = biological target: T3, p38α T106Q; experiment: Kinase activity assay; assay type: biochemical

Km (Erk2 Q103T)	Km (Erk2 Q103T/C164L)	Km (Jnk3 wt)	Km (p38δ wt)	Km (p38α wt [1])	Km (Jnk3 M146I)	Km (Erk2 wt)	Km (p38α T106Q [2])	Km (p38δ M107T)	Km (Erk2 Q103A/C164L)	Ki (p38α wt [3])	Ki (p38α T106Q [4])	Compound
83 ± 5 µM	180 ± 20 µM	8.3 ± 0.6 µM	91 ± 6 µM	229 ± 16 µM	66 ± 3 µM	120 ± 10 µM	> 1000 µM	380 ± 40 µM	137 ± 6 µM	–	–	Nc1ncnc2c1ncn2[C@@H]1O[C@H](COP(=O)(O)OP(=O)(O)OP(=O)(O)O)[C@@H](O)[C@H]1O [ATP]
–	–	–	–	–	–	–	–	–	–	8.1 ± 0.2 nM	3700 ± 400 nM	Cc1ccc(C(=O)Nc2ccc(CN3CCN(C)CC3)c(C(F)(F)F)c2)cc1C#Cc1cnc2cccnn12 [L1, Iclusig]
